How the values were obtained:
[1] = tested on: Klebsiella pneumoniae (ATCC BAA-1705); assay: Antimicrobial efficacy against ESKAPE pathogens; assay type: cell-based; conditions: mammalian serum
Method: (§1) Antimicrobial Studies. The phosphate buffers used for antimicrobial assays were supplemented with non-nitrogenous energy source, 0.1% (w/v) glucose. To conduct antimicrobial assays, bacterial strains were first suspended in respective buffers. E. coli (ATCC 25922) and B. cereus (ATCC 11778) were grown in MHB II up to OD600 nm˜1 and stored as frozen stock in 20% glycerol at −80° C. Occasionally they were thawed and enumerated by serial dilution and spreading on MHB II agar plates. The concentrations of the frozen stocks of E. coli and B. cereus strains were 1.0-1.1*10^8 CFU/mL with OD600 nm˜0.8. In case of other bacterial strains, they were grown on the days of experiment up to OD600 nm˜1-1.5 and then adjusted to OD600 nm˜0.8. The growth media of the drug-resistant bacterial strains were supplemented with few of the respective antibiotics against which they are resistant. 200 μL of the 0.8 OD600 nm culture were added to 10 mL of the respective buffer to obtain a suspension which was used to incubate with equal volumes of peptide solution in the same buffer.
(§2) Antimicrobial assays in different phosphate buffers and serum were conducted by adapting, with necessary modifications a fast high-throughput method based on Virtual Colony Count technique and later modified by incorporating the use of resazurin. At first serial dilution of a microbial strain in respective buffer was poured in the wells of 96 well polypropylene microplate and was then added with same volume of 2× MHB II supplemented with 80 μg/mL resazurin and incubated at 35° C. in a Gemini EM Microplate Reader (Molecular Devices) overnight with intermittent shaking. As the microbe grows it reduces non-fluorescent resazurin to fluorescent resorufin and the fluorescent intensity of each well were measured (excitation=570 nm, emission=590 nm) each 5 min for 15 hours. The time (t, min) to reach a certain fluorescence (RFU=20000 with respect to the starting fluorescence) was correlated with the initial bacterial concentration (in CFU/mL) in the particular well to obtain a calibration plot of the form: Log([Bacteria],CFU/mL)=b+m*t Equation 4: […]
(§3) To obtain antimicrobial efficacy of the peptides, 50 μL of serially diluted peptide in a buffer was incubated with 50 μL microbial suspension in the same buffer for 3 hours in black polypropylene 96 well plate. After incubation the wells were added with 100 μL of 2× MHB II supplemented with 80 μg/mL resazurin and then incubated with continuous fluorescence reading for overnight time period as described earlier. The surviving microbial population (CFU/mL) in each well were calculated by first finding the time to reach a fluorescence of RFU=20000 and the correlation (4) for the specific microbial strain and buffer. % Survival represents the proportion of viable cells in peptide treated cells relative to cells treated with the respective buffer alone. Equation 5: […]
(§4) Finally, the antimicrobial effectiveness of each peptide against the particular microbial strain in the specific buffer was determined by plotting % microbial survival as a function of the log of the concentration of the peptide and fitting the resulting data to a variable-slope sigmoidal regression model (equation 6). […]
(§5) ATRA1-R3W2-HYD, NA-CATH and PMB were evaluated for their effectiveness in mammalian serum conditions against pathogenic bacteria of both normal and drug-resistant strains. […]

Pseudomonas aeruginosa = assay: Antimicrobial efficacy against ESKAPE pathogens; assay type: cell-based
Method: as §1, §2, §3, §4, §5

[2] = tested on: multi-drug resistant (MDR) Acinetobacter baumannii (ATCC BAA-1795); assay: Antimicrobial efficacy against ESKAPE pathogens; assay type: cell-based; conditions: mammalian serum
Method: as §1, §2, §3, §4, §5

ESKAPE pathogens = assay: Antimicrobial efficacy against ESKAPE pathogens (all other than P. aeruginosa); assay type: cell-based; conditions: mammalian serum; susceptible and drug-resistant strains
Method: FIG. 8 is a graph showing antimicrobial efficacies of ATRA1-R3W2-HYD (blue), NA-CATH (dark orange) and PMB (green) against selected members of ESKAPE (Enterococcus faecium, Staphylococcus aureus, Klebsiella pneumoniae, Acinetobacter baumannii, Pseudomonas aeruginosa, and Enterobacter) pathogens. Both susceptible and drug-resistant strains were used. All the bacteria, except Pseudomonas aeruginosa, were tested under mammalian serum. P. aeruginosa results were obtained from testing in DPBS. The results are presented as mean of tests in triplicate with error-bars depicting the 95% confidence interval of the mean.
Antimicrobial Studies. The phosphate buffers used for antimicrobial assays were supplemented with non-nitrogenous energy source, 0.1% (w/v) glucose. […]
Antimicrobial assays in different phosphate buffers and serum were conducted by adapting, with necessary modifications a fast high-throughput method based on Virtual Colony Count technique and later modified by incorporating the use of resazurin. At first serial dilution of a microbial strain in respective buffer was poured in the wells of 96 well polypropylene microplate and was then added with same volume of 2× MHB II supplemented with 80 μg/mL resazurin and incubated at 35° C. in a Gemini EM Microplate Reader (Molecular Devices) overnight with intermittent shaking. […]

[3] = tested on: primary lung epithelium cells; assay: Cytotoxicity (Alamar blue); assay type: cell-based, human; conditions: ~16 hours (overnight), reduced serum conditions
Method: FIGS. 11A-11B are graphs showing cytotoxicity against primary lung epithelium cells in serum-free condition. Cells were seeded in complete growth medium (Minimal essential medium supplemented with 10% fetal bovine serum) at near-confluence into a 96-well plate and allowed to settle for 24-hours. Media was then replaced to OptiMEM I reduced serum medium containing peptide or vehicle alone (DBPS) and cells were incubated overnight (16 hours). A resazurin based dye (Alamar blue) was added directly to media and conversion of resazurin to resorufin was evaluated following two hours. % Survival represents the proportion of viable cells in peptide treated cells relative to cells treated with vehicle alone. […] Each peptide was tested in triplicate.
FIG. 12 is a graph showing comparison of toxicities against Lung Primary Epithelial cells and Lung Cancerous Epithelial Cells, derived from H358 cell-line. […] Each peptide was tested in triplicate.
Cytotoxicity. Cells were seeded in complete growth medium (Minimal Essential Medium, MEMα, supplemented with 10% Fetal Bovine Serum) into a culture-treated 96-well plate at a density of 25000 cells per well. After 24 hours, culture media was aspirated and replaced with media containing the selected peptide. No-serum experiments were conducted in Opti-MEM I reduced serum media (ThermoFisher, 31985062) and 10% serum experiments were performed in complete growth medium. In all cases, DBPS was used as a vehicle only control and buffer to serially dilute the peptides. After exposure to the peptides or vehicle-alone for the defined period, Alamar blue dye (resazurin) was added directly to the media and allowed to incubate for two hours. Following incubation, A570/A600 measurements were made to calculate reduction of resazurin dye to resorufin. A ratio of reduction in treated versus untreated cells was calculated in order to determine overall cell viability. The human cells were always maintained in a 37° C. incubator under 5% CO2.

RRWKRFFKRWKGGVIGVTFPF (SEQ ID NO: 50) [ATRA1-R3W2-HYD, ATRA1-R3W2 with hydrophobic tail of NA-CATH joined by -GG-]
antimicrobial effectiveness, in words [1]: effective in mammalian serum | antimicrobial effectiveness, in words (Pseudomonas aeruginosa; DPBS): good bactericidal properties | antimicrobial effectiveness, in words (Pseudomonas aeruginosa; mammalian serum): did not demonstrate antimicrobial effectiveness | antimicrobial effectiveness, in words [2]: effective in mammalian serum | antimicrobial effectiveness, in words (ESKAPE pathogens): highly effective, though in lower degree than PMB | concentration decreasing resazurin reduction by 50% (LD50) [3]: ~50 µM | concentration over which significant toxicity was observed [3]: ~50 µM
